{"source": "patent US6818649B2", "about": "“Chromenylmethyl pyrimidinediamines as antibacterial agents” (Basilea Pharmaceutica AG, priority 2000, dated 2004)", "key": {"[1]": {"system": "Streptococcus pneumoniae 1/1, Trimethoprim- and Penicillin-resistant, Serotype 6; clinical isolate", "assay": "MIC against Streptococcus pneumoniae 1/1", "assay_type": "cell-based", "conditions": "read-out: MIC Spn1/1", "procedure": "(§1) The following Table contains inhibitory concentrations determined in the above test for representative members of the class of compound defined by formula I. The following microorganisms were tested: […]\nCol. 1: MIC Spn1/1; μg/ml (Streptococcus pneumoniae 1/1, Trimethoprim- and Penicillin-resistant, Serotype 6; clinical isolate, stored at −80° C.)\nLit.: H. Locher et al., Can. J. Infect. Dis.6: Suppl. C, p 469C."}, "[2]": {"system": "Staphylococcus aureus 101, MRSA and Trimethoprim-resistant; clinical isolate", "assay": "MIC against Staphylococcus aureus 101", "assay_type": "cell-based", "conditions": "read-out: MIC Sa101", "procedure": "as §1\nCol. 2: MIC Sa101; μg/ml (Staphylococcus aureus 101, MRSA^*)— and Trimethoprim-resistant; clinical isolate, stored at −80° C.)\n^*) MRSA=Methicillin Resistant Staphylococcus Aureus"}, "[3]": {"biological_target": "purified DHFR of the strain 157/4696 (highly trimethoprim-resistant; clinical isolate) of Staphylococcus aureus (Staphylococcus aureus, UniProt P13955)", "assay": "biochemical", "excerpt": "The inhibition of the enzyme was taken as a measurement for the antibacterial activity."}, "[4]": {"biological_target": "T1, purified DHFR of strain Sp1/1 of Streptococcus pneumoniae (Streptococcus pneumoniae, UniProt Q54801)", "T1 sequence (Q54801 1-168)": "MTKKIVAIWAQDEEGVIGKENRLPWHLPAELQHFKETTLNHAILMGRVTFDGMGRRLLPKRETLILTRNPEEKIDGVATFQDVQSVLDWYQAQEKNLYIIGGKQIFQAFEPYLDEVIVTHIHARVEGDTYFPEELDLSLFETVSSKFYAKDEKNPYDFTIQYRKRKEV", "conditions": "read-out: DHFR Spn1/1 (IC50); purified DHFR of S. pneumoniae strain Spn1/1; IC50 determined graphically", "excerpt": "3: DHFR Spn1/1; μM—the IC50-values in μM against the purified DHFR of the above strain Sp1/1 of Streptococcus pneumoniae."}}, "data": [{"smiles": "COc1cc(Cc2cnc(N)nc2N)cc2c1OC(C)(C)C=C2Cl", "note": "[Example 6, 5-(4-Chloro-8-methoxy-2,2-dimethyl-2H-chromen-6-ylmethyl)-pyrimidine-2,4-diamine]", "values": [{"measurement": "MIC", "setting": "[1]", "result": 4, "unit": "µg/mL"}, {"measurement": "MIC", "setting": "[2]", "result": 1, "unit": "µg/mL"}, {"measurement": "IC50", "setting": "[3]", "result": 380, "unit": "nM"}, {"measurement": "melting point", "result": "221 to 222", "unit": "°C"}, {"measurement": "IC50", "setting": "[4]", "result": 110, "unit": "nM"}]}, {"smiles": "COCC#CC1=CC(C)(C)Oc2c(OC)cc(Cc3cnc(N)nc3N)cc21", "note": "[Example 16, 5-[8-Methoxy-4-(3-methoxy-prop-1-ynyl)-2,2-dimethyl-2H-chromen-6-ylmethyl]-pyrimidine-2,4-diamine]", "values": [{"measurement": "MIC", "setting": "[1]", "result": "> 8", "unit": "µg/mL"}, {"measurement": "MIC", "setting": "[2]", "result": 4, "unit": "µg/mL"}, {"measurement": "IC50", "setting": "[3]", "result": 220, "unit": "nM"}, {"measurement": "melting point", "result": "236 to 237", "unit": "°C"}, {"measurement": "IC50", "setting": "[4]", "result": 680, "unit": "nM"}]}, {"smiles": "CCOc1cc(Cc2cnc(N)nc2N)cc2c1OC1(C=C2Br)CCC1", "note": "[Example 30, 5-[(4-Bromo-8-ethoxyspiro[2H-1-benzopyran-2,1′-cyclobutan]-6-yl)methyl]-2,4-pyrimidinediamine]", "values": [{"measurement": "MIC", "setting": "[1]", "result": 4, "unit": "µg/mL"}, {"measurement": "MIC", "setting": "[2]", "result": 2, "unit": "µg/mL"}, {"measurement": "IC50", "setting": "[3]", "result": 210, "unit": "nM"}, {"measurement": "melting point", "result": "213 to 214", "unit": "°C"}, {"measurement": "IC50", "setting": "[4]", "result": 8.9, "unit": "nM"}]}, {"smiles": "CCCC1=CC(C)(C)Oc2c(OCC)cc(Cc3cnc(N)nc3N)cc21", "note": "[Example 10, 5-(8-Ethoxy-2,2-dimethyl-4-propyl-2H-chromen-6-ylmethyl) -pyrimidine-2,4-diamine]", "values": [{"measurement": "MIC", "setting": "[1]", "result": 2, "unit": "µg/mL"}, {"measurement": "MIC", "setting": "[2]", "result": 4, "unit": "µg/mL"}, {"measurement": "IC50", "setting": "[3]", "result": 1100, "unit": "nM"}, {"measurement": "melting point", "result": "208 to 209", "unit": "°C"}, {"measurement": "IC50", "setting": "[4]", "result": 15, "unit": "nM"}]}, {"smiles": "CCOc1cc(Cc2cnc(N)nc2N)cc2c1OC(C)(C)C=C2C", "note": "[Example 8, 5-(8-Ethoxy-2,2,4-trimethyl-2H-chromen-6-ylmethyl)-pyrimidine-2,4-diamine]", "values": [{"measurement": "MIC", "setting": "[1]", "result": 2, "unit": "µg/mL"}, {"measurement": "MIC", "setting": "[2]", "result": 4, "unit": "µg/mL"}, {"measurement": "IC50", "setting": "[3]", "result": 1300, "unit": "nM"}, {"measurement": "melting point", "result": "216 to 218", "unit": "°C"}, {"measurement": "IC50", "setting": "[4]", "result": 15, "unit": "nM"}]}]}
